Series [1] deals with T1, CYP2C9 (Homo sapiens, UniProt P11712). The series can be described thus: CYP inhibition. The settings on record: test compounds at 10 μM; substrate Diclofenac Sodium.
The nature of series [2]: Oral PK of K102 at 40 mg/kg in female mice. The format is in vivo, C57BL/6 mouse. The settings on record: female mouse, PO 40 mg/kg, mean.
For another series, the target named is CYP1A2 (Homo sapiens, UniProt P05177). The series can be described thus: CYP inhibition. The settings on record: test compounds at 10 μM; substrate Phenacetin.
Series [3] is described as follows: Oral PK of K102 at 40 mg/kg in female rats. Particulars: female rat, PO 40 mg/kg, mean. The format is in vivo, Sprague–Dawley rat.
The subject of series [4] is Human iPSC-derived OPCs (Tempo's iOligo). The series can be described thus: Differentiation of human iPSC-derived OPCs (Tempo iOligo), MBP. In kind it is cell-based. Particulars: human OLs, 10 nM, 18 days. The source says: Mouse and Human primary cell cultures: Primary OPC/OL culture were isolated from the cortices of postnatal day 0–1 C57BL/6J mice of both sexes, using established protocols[11],[20],[21]. Mouse OPC and Neuronal Co-cultures: Primary neuronal cultures were established in Neurobasal medium with B27 and plated on poly-L-lysine-coated coverslips. After 12 days, OPCs were isolated, counted, and added to neuronal cultures and media was replaced with neuronal and proliferation media for 3 days, then switched to maturation media that maintained both neurons and OLs. Human iPSC-derived OPCs (Tempo’s iOligo™) were expanded, cryopreserved, and later plated on Matrigel-coated coverslips. After 3 days in growth medium, cells were treated for 3 weeks with T3 containing maturation medium. Differentiation into myelin-producing OLs was assessed using O4 (OL surface marker on pre-OLs) and myelin basic protein (MBP) immunohistochemistry. In all conditions compounds or vehicle were added to culture during differentiation for either 5 days (mouse) or 18 days (human). […]
Tempo’s iOligo (OPC) cells form branched bipolar and tripolar structures when cultured as a monolayer and express OL markers, including O4, NG2, and CNPase. […] After plating human OPCs and allowing two days of growth in expansion media, the culture medium was switched to T3 + maturation medium and evaluated for MBP expression (Fig. 8i). […]

For series [5], the target named is T2, CYP2D6 (Homo sapiens, UniProt P10635). The series can be described thus: CYP inhibition. Particulars: test compounds at 10 μM; substrate Dextromethorphan.
The nature of series [6]: Oral PK of K102 at 40 mg/kg in female dogs. The format is in vivo, beagle dog. Particulars: female dog, PO 40 mg/kg, mean.
Series [7] is described as follows: Hepatocyte stability (mouse).
The target of series [8] is T2, CYP2D6. Particulars: 10 µM.
For series [9] the following is noted: plasma.
Series [10] has as its system 1A2, 2B6, 2C9, 2C19, 2D6, and 3A4M/T. The series can be described thus: CYP inhibition panel summary. The format is in vitro ADME, human. Particulars: 10 µM.
Another series concerns the target CYP2C19 (Homo sapiens, UniProt P33261). Particulars: 10 µM.
For series [11] the following is noted: mouse, in vivo.
Method: Mice were dosed intravenously at 5 mg/kg, subcutaneously at 10 mg/kg, and orally at 25 mg/kg.
Only values above the LLOQ.(0.3 ng/mL) were plotted.
Series [12] deals with T1, CYP2C9. Particulars: 10 µM.

Molecules are shown by their SMILES. Like-named read-outs stand apart in the source and are kept apart here.

T2 sequence (P10635 whole entry): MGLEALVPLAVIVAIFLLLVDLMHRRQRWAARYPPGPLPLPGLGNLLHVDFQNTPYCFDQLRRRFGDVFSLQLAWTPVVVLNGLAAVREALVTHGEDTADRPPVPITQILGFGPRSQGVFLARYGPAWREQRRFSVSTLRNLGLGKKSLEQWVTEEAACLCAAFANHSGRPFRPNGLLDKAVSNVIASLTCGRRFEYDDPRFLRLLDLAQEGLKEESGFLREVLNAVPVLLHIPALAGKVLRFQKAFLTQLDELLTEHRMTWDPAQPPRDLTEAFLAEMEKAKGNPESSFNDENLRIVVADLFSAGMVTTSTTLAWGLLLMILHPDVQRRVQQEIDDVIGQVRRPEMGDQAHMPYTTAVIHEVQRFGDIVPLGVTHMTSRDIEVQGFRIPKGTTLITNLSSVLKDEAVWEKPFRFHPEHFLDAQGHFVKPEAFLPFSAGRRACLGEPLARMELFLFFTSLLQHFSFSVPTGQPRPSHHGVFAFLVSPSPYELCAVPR
T1 sequence (P11712 whole entry): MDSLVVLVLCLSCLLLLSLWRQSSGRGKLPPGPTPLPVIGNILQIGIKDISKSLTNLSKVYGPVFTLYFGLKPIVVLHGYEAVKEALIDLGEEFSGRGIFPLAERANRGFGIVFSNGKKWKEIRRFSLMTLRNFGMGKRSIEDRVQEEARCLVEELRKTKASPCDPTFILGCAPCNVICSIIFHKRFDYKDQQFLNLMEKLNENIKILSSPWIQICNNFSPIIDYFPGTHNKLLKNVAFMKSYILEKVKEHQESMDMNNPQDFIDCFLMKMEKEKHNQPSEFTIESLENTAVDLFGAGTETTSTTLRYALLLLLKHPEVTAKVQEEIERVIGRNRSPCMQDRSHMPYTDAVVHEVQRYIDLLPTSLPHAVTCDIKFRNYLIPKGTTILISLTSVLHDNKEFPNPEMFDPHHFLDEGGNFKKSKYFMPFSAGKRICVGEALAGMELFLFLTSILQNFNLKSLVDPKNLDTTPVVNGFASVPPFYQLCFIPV
CYP2C19, sequence (P33261 whole entry): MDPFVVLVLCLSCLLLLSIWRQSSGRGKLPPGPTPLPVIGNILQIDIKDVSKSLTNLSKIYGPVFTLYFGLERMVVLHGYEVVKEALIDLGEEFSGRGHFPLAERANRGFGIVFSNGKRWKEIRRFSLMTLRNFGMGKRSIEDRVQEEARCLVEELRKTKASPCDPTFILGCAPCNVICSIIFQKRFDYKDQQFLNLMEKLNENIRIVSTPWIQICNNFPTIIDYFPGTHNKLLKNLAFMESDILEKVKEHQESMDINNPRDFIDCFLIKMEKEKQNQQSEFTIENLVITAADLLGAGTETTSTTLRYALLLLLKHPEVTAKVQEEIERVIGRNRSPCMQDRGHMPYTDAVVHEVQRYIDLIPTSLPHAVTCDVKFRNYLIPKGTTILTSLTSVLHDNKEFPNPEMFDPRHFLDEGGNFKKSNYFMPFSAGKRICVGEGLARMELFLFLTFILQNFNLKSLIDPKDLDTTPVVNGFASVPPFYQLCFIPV
CYP1A2, sequence (P05177 whole entry): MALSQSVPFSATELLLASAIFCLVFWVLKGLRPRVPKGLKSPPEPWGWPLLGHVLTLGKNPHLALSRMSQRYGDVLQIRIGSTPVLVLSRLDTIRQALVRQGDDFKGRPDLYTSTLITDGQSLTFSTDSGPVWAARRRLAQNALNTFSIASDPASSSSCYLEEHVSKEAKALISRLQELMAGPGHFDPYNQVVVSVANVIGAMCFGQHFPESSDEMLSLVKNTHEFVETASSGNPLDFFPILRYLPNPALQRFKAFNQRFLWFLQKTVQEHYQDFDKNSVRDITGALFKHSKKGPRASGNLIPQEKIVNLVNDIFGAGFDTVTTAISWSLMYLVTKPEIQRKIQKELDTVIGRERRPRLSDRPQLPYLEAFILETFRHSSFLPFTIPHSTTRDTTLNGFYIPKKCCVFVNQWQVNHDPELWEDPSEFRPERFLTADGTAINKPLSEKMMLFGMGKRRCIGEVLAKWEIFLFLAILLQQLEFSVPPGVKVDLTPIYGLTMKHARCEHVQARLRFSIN

A word on the Cmax: it is the peak of the concentration-time curve. As a reminder, the Tmax is the time from dosing to the highest level. With `Cc1cc(O)ccc1-n1nc2ccc(O)cc2c1Cl` [Compound K102, IndCl-o-Me], the “CYP Inhibition Percentage CYP2C9” value at CYP2C9 [1] is listed as 36.09%. In series [2], this molecule returned an AUCExtr of 13.0%, an AUCInf of 855 ng·h/mL, an AUCInf/D of 21.4 kg·ng·h/mL/mg and an AUClast of 748 ng·h/mL. In series [2], the maximum concentration (Cmax) was 945 ng/mL, the MRTInf stood at 248 min, the Tmax was found to be 15 min and the t1/2 turned out to be 256 min. Also, the “CYP Inhibition Percentage CYP1A2” value on CYP1A2 worked out at 26.19%. Besides, in series [3], the AUCInf/D is 235.1 kg·ng·h/mL/mg, the AUClast was 9403 ng·h/mL, the Cmax was determined as 1657 ng/mL and the time of peak concentration (Tmax) was 15 min. The “MBP levels vs vehicle control” value in series [4] is on record as “significantly increased”. Moreover, the “CYP Inhibition Percentage CYP2D6” value at CYP2D6 [5] was 18.26%. In [6], the AUCInf/D worked out at 0.6 kg·ng·h/mL/mg, the AUClast is 24.6 ng·h/mL, the Cmax stood at 31.7 ng/mL and the Tmax turned out to be 15 min. For the same molecule, the “Hepatocyte Stability (Mouse) CLint” value in series [7] was 86.57 µL/min/mg protein. For the same molecule, in series [7] (mouse, hepatocytes), the “Hepatocyte Stability (Mouse) t1/2” value was 16.01 min.

Consider `Oc1ccc(-n2nc3ccc(O)cc3c2Cl)c(O)c1` [Compound K110, IndCl-o-OH], for which the “CYP Inhibition Percentage CYP2D6” value on CYP2D6 [8] was determined as 5.63%. Besides, the “Protein Binding (% Bound) Human” value in series [9] stood at 93.27%. Also, the “CYP inhibition, all other isoforms of the panel” value in [10] is less than 50%. Also, the “CYP Inhibition Percentage CYP2C19” value at CYP2C19 is listed as 27.89%. Besides, in [11] (iv, 5 mg/kg), the Cl_obs was determined as 158 mL/min/kg, the “Kp AUC0-t (brain/plasma)” value worked out at 0.37, the “Kp AUClast (brain/plasma)” value was found to be 0.37 and the Vss_obs was found to be 2.23 L/kg. Besides, in [11] (po, 25 mg/kg), the AUCinf brain worked out at 354 ng·h/g, the AUCinf plasma was 780 ng·h/mL, the “Brain/Plasma Ratio(%)” value was 46% and the “Kp AUC0-t (brain/plasma)” value came out at 0.46. In series [11] (po, 25 mg/kg), the “Kp AUClast (brain/plasma)” value is 0.41. In series [11] (sc, 10 mg/kg), the AUCinf brain was found to be 303 ng·h/g, the AUCinf plasma is 1403 ng·h/mL, the “Brain/Plasma Ratio(%)” value turned out to be 22% and the “F (Bioavailability)” value came out at 133%. Moreover, in series [11] (sc, 10 mg/kg), the “Kp AUC0-t (brain/plasma)” value is reported as 0.22 and the “Kp AUClast (brain/plasma)” value amounted to 0.20. The “CYP Inhibition Percentage CYP2C9” value at CYP2C9 [12] was 18.49%.

For the origin of these results see paper PMC12508063, “Chloroindazole based estrogen receptor β ligands with favorable pharmacokinetics promote functional remyelination and visual recovery” (Scientific Reports, 2025).
